Structures are written as SMILES.

In one assay the test system is lettuce plants. Particulars: cited from earlier work.
A further assay deals with radish. Particulars: cited from earlier work.
Another assay has as its system peas. Particulars: cited from earlier work.
Another assay has as its system Lettuce. The assay can be described thus: Growth of lettuce in nutrient-film technique hydroponic system (fresh weight of leafy head at harvest). The assay is classed as in vivo, lettuce (buttercrunch). Particulars: treatment day 42, harvest day 58, N=28 (control mean 36.13 g). As to the method: Lettuce was grown in a nutrient-film technique hydroponic system. The seedlings were grown under LED light film with a 14 hour on time, and a 10 hour off time. The lettuce seeds were purchased from Johnny Selected Seeds. The seed variety was buttercrunch, ID 435 g. The nutrients used were Chem-Gro lettuce formula NPK with micronutrients. Calcium nitrate and magnesium sulfate were also added to the nutrients. The nutrients and the NAC-trisulfide were added to the nutrient bucket, Which was a 4 gallon bucket that recirculated the nutrient solution through the entire NFT system to bathe the roots of the lettuce plants with nutrients and water. An air stone with air pump was used in each nutrient bucket to provide aeration to the nutrient solution. […] The nutrient reservoirs were kept pH balanced and nutrient levels were kept steady. The nutrient loading measured in EC (electrical conductivity) would gradually increase as the water was consumed but would return to normal levels once water was added to return the buckets to the max volume of 4 gallons. The conductivity (EC) and pH were measured every 1 to 2 days. Nutrient was added as EC at 4 gallons would approach a value of 0.5 EC. The starting nutrient loading was 1.7 EC, The pH of the nutrient solution was balanced using phosphoric acid “pH down” solution. The pH of the nutrient solution ranged between 6.4-7.4.
The lettuce seeds were started in a separate flood tray. The seeds were sowed into an inert solid support (Oasis Horticubes) and the support absorbed water and nutrients like a sponge. The seedlings were then grown in the seeding hay for 33 days prior to transplant into the channels. At day 42. N-acteyl cysteine trisulfide (NAC trisulfide) was added to the nutrient of the lettuce plants. […]
The lettuce plants were harvested by cutting at the root boundary and discarding the roots along with the solid support. The leafy head of lettuce was then weighed to quantify the fresh weight of the lettuce reported in the graphs (see FIG. 1).

On to `C1COCCN1.COc1ccc(P(=S)(S)N2CCOCC2)cc1` (stereo not shown) [GYY-4137], for which the growth of plants result in the assay with lettuce plants, with radish (radish) and in the assay on peas was “increased the growth” in each case. For the same compound, the “harvest yield of radishes” value in the assay on radish (milligram loadings applied) is “doubled”.

Turning to `CC(=O)N[C@@H](CSSSC[C@H](NC(C)=O)C(=O)O)C(=O)O` [NAC trisulfide, N-acetyl cysteine trisulfide], the “Fresh Weight (g) Mean” value in the assay with Lettuce (group 2, 0.2449 g/4 gal nutrient reservoir) is reported as 42.50 g; with Lettuce (group 3, 0.7475 g/4 gal nutrient reservoir), 51.44 g; with Lettuce (group 4, 1.6112 g/4 gal nutrient reservoir), 56.07 g.

The values are drawn from patent US20230397605A1, “METHODS FOR IMPROVING PLANT GROWTH AND CROP YIELD BY USING COMPOUNDS OF TRISULPHIDE OR TETRASULPHIDE” (UNIVERSITY OF IOWA RESEARCH FOUNDATION, priority 2020, published 2023).
